According to US20260007680A1, “Compounds and Their Use as PDE4 Activators” (Mironid Limited, priority 2022, published 2026):

Columns and labels:
PDE4B2 = target: T1, PDE4B2 (Homo sapiens, UniProt Q07343); experiment: PDE assay, PDE4B2 short form (Experiment 1); type: biochemical; conditions: 100 μM test compound; mean % increase in counts over basal activity
T1 construct: the full length human PDE4B2 short isoform; made in house; cytosol fraction of cell lysate, prepared as described for PDE4D5
T1 sequence (Q07343 1-564 isoform Q07343-2): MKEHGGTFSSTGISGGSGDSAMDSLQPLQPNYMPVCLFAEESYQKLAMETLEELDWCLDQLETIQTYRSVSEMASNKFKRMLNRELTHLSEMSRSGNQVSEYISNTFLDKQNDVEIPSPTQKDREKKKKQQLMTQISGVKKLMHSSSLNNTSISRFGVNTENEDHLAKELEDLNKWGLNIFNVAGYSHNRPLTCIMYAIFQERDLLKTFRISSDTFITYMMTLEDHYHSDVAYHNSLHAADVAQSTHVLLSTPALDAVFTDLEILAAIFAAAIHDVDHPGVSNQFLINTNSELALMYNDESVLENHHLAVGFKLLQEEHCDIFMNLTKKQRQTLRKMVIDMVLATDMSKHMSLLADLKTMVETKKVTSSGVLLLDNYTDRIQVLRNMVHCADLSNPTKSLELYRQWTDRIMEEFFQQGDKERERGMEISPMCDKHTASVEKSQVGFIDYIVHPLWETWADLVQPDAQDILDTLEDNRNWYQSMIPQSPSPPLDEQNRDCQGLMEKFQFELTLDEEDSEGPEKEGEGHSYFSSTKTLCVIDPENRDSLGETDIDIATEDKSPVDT
Method: (§1) One suitable method of detecting whether or not a compound is capable of serving as an activator of a PDE4 long form is using a two-step radio-assay procedure described in Experiment 1. In summary, the method involves incubating a PDE4 long form with a test small molecule activator, together with [^3H]-labelled cAMP to assess alterations in the breakdown of cAMP to the 5′-adenosine monophosphate (5′-AMP) product. A sample of the reaction mixture from such an incubation is subsequently treated with snake venom 5′-nucleotidase to allow conversion of the nucleotide [^3H]-labelled 5′-AMP to the uncharged nucleoside [^3H]-labelled adenosine, which can be separated and quantified to assess PDE4 activity and the effect of the test compound (Thompson, W. J. and Appleman, M. M. Biochemistry 10: 311-316, 1971, with some modifications as described in: Marchmont, R. J. and Houslay, M. D. Biochem J. 187: 381-92, 1980).
(§2) Experiment 1: Measurement of Modulation of Enzyme Activity by PDE4 Long Form Activators of the Present Invention Using Full-Length Human PDE4 Isoforms; Long Forms PDE4D5, PDE4C3, PDE4B1 and Short Form PDE4B2 • (Marchmont, R. J. and Houslay, M. D. Biochem. J. 187: 381-92, 1980)
(§3) Where stable cell lines were generated the clonal isolates were expanded to obtain cell lines that stably expressed the full-length human PDE4 long isoforms and the full length human PDE4B2 short isoform. These were called the HEK-PDE4D5, HEK-PDE4B1 and HEK-PDE4B2 cell lines, respectively.
(§4) PDE assays were performed in thin walled V-bottomed 96-well plates. The assays were performed at a final concentration of 10 mM Tris/5 mM MgCl2 plus PDE4D5 cell lysate cytosol fraction, containing over-expressed PDE4D5, with and without test compound. The lysate/compound mix were incubated together for 15 min at room temperature on an orbital shaker prior to addition of [^3H] cAMP (final concentration 1 μM [^3H] cAMP; Perkin Elmer) to a final volume of 50 μL per reaction. The reactions were then incubated for 10 minutes at 30° C., terminated by heating for 2 min at 95° C. and allowed to cool. Snake venom (12.5 μL of 1 mg/mL; Crotalus atrox, Sigma) was then added and the plates were agitated and incubated for a further 15 minutes at 30° C. Dowex ion exchange resin (Sigma, chloride form, 200-400 mesh; 200 μL; prepared as a 1:1 Dowex:water stock, thoroughly re-suspended and diluted 2:1 with ethanol) was then added to each well and the plates incubated for 15 min at room temperature on an orbital shaker ensuring sufficient agitation for resin suspension (550 RPM). The reaction mixture was then transferred to a 96 well filter plate (Millipore; 0.45 μm pore size) and filtered into a receiving 96-well plate to remove the dowex suspension. 30 μL of the filtered solution was then transferred to the wells of an Opti-plate (Perkin Elmer) 96 well assay plate and 120 μL of Microscint 40 scintillation fluid was added. The plate was then placed on an orbital shaker for 10 min at high speed (900 rpm) to mix the sample with scintillation fluid prior to quantitation using a plate based scintillation counter (Top-Count).
The % increase in counts in the presence of test compound at a particular concentration indicates the % increase in enzyme activity at that concentration.

PDE4D5 = target: T2, PDE4D5 (Homo sapiens, UniProt Q08499); experiment: PDE assay, activation of PDE4D5 long form (Experiment 1); type: biochemical; conditions: 100 μM test compound; mean % increase in counts over basal activity
T2 construct: Using Full-Length Human PDE4 Isoforms; Long Forms PDE4D5, PDE4C3, PDE4B1 and Short Form PDE4B2; made in house; cytosol fraction of cell lysate
T2 sequence (Q08499 1-745 isoform Q08499-6): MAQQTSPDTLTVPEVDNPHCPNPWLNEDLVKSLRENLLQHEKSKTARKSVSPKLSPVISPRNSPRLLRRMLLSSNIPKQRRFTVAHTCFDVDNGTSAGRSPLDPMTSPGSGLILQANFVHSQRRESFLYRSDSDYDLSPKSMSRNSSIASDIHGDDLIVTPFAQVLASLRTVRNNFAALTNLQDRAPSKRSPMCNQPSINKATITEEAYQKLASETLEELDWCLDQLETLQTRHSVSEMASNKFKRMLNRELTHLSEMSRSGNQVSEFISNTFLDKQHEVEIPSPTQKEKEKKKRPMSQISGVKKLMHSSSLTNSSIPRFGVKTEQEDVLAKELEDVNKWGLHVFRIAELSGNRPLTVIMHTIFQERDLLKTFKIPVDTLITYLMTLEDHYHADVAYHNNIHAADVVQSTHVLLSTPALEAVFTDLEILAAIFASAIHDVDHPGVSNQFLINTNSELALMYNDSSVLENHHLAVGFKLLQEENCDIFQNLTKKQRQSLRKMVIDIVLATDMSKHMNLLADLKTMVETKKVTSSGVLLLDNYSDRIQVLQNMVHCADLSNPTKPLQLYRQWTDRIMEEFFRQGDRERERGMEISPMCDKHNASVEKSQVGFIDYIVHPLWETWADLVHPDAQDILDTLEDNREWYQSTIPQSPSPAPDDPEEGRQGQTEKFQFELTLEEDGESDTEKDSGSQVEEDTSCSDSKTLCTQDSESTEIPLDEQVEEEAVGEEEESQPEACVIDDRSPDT
Method: as §1, §2
For transient transfection of exogenous PDE4 long isoforms, HEK 293 cells were transfected with pcDNA3.1 or pDEST^TM PDE4 expression vectors using Lipofectamine LTX/Plus reagent (Invitrogen) as outlined by the manufacturer.
as §3
HEK-PDE4D5 cells were seeded out in 100 mm plates and incubated at 37° C. in an atmosphere of 5% CO2, 95% air. Cell lysates were prepared using KHEM buffer [50 mM KCl, 10 mM EGTA, 50 mM HEPES (pH 7.2), 1.92 mM MgCl2].
To prepare the cell lysates, the 100 mm plates containing the cells were placed on ice and washed with ice-cold PBS (phosphate buffered saline, pH 7.4). KHEM buffer (500 μL) was added to the cells. Cells were then scraped off the plate and triturated using a needle (BD Microlance™ 0.8, 40 mm). The lysed cells were then centrifuged at 2000 rpm for 10 minutes to remove cell debris and the supernatant (cell lysate containing recombinant PDE4D5) was transferred to a fresh tube and kept on ice.
The cell lysate containing recombinant PDE4D5 was transferred into a centrifuge tube and placed into an ultracentrifuge (BECKMAN COULTER) and spun at high speed (100,000 g) for 30 minutes at 4° C. The cytosol fraction was then collected and its protein amount determined using a BCA protein assay.
as §4, with “30 μL of the filtered solution was then transferred to the wells of an Opti-plate (Perkin Elmer) 96 well assay plate and 120 μL of Microscint 40 scintillation fluid was added. The plate was then placed on an orbital shaker for 10 min at high speed (900 rpm) to mix the sample with scintillation fluid prior to quantitation using a plate based scintillation counter (Top-Count).” left out

Row | SMILES | activation at 100 µM (PDE4B2) [%] | activation at 100 µM (PDE4D5) [%]
1 | O=C(N[C@H]1CCOc2ccccc21)c1ccc2[nH]c(-c3cccnc3)nc2c1 [Example 8, (S)—N-(chroman-4-yl)-2-(pyridin-3-yl)-1H-benzo[d]imidazole-5-carboxamide] | -35 | 52
2 | O=C(N[C@H]1CCc2ccccc21)c1ccc2[nH]c(-c3cccnc3)nc2c1 [Example 10, (S)—N-(2,3-dihydro-1H-inden-1-yl)-2-(pyridin-3-yl)-1H-benzo[d]imidazole-5-carboxamide] | -35 | 46
3 | Cc1ccc(-c2nc3ccc(C(=O)N[C@H]4CCOc5ccccc54)cn3n2)cn1 [Example 35, (S)—N-(chroman-4-yl)-2-(6-methylpyridin-3-yl)-[1,2,4]triazolo[1,5-a]pyridine-6-carboxamide] | -11 | 68
4 | Cc1cncc(-c2nc3ccc(C(=O)N[C@H]4CCOc5ccccc54)cn3n2)c1 [Example 36, (S)—N-(chroman-4-yl)-2-(5-methylpyridin-3-yl)-[1,2,4]triazolo[1,5-a]pyridine-6-carboxamide] | 6 | 57
5 | Cc1ccc(-c2nc3ccc(C(=O)N[C@H]4CCOc5ccccc54)cn3n2)c(C)n1 [Example 39, (S)—N-(chroman-4-yl)-2-(2,6-dimethylpyridin-3-yl)-[1,2,4]triazolo[1,5-a]pyridine-6-carboxamide] | -28 | 63
6 | O=C(N[C@H]1CCOc2ccccc21)c1cnc2cc(-c3cccnc3)nn2c1 [Example 90, (S)—N-(chroman-4-yl)-2-(pyridin-3-yl)pyrazolo[1,5-a]pyrimidine-6-carboxamide] | -8 | 99

Now from value to molecule:

Row | activation at 100 µM (PDE4B2) [%] | activation at 100 µM (PDE4D5) [%] | SMILES
7 | 3 | 123 | CN1CCC(c2nc3cc(C(=O)N[C@H]4CCCc5ccccc54)ccc3[nH]2)CC1 [Example 15, (S)-2-(1-methylpiperidin-4-yl)-N-(1,2,3,4-tetrahvdronaphthalen-1-yl)-1H-benzo[d]imidazole-5-carboxamide]
8 | 0 | 176 | O=C(N[C@H]1CCOc2ccccc21)c1ccc2nc(-c3cccnc3)nn2c1 [Example 34, (S)—N-(chroman-4-yl)-2-(pyridin-3-yl)-[1,2,4]triazolo[1,5-a]pyridine-6-carboxamide]
9 | -24 | 127 | Cc1ccncc1-c1nc2ccc(C(=O)N[C@H]3CCOc4ccccc43)cn2n1 [Example 37, (S)—N-(chroman-4-yl)-2-(4-methylpyridin-3-yl)-[1,2,4]triazolo[1,5-a]pyridine-6-carboxamide]
